According to patent publication US11103460B2 (priority 2017, dated 2021):

How the values were obtained:
[1] = human, in vivo, iv; cited from earlier work

Row | SMILES | patients experiencing bone marrow toxicity resulting in neutropenia [1] | in vivo release behaviour (fluorescence in urine)
1 | Nc1nc(O)c2ncn(COC(CO)CO)c2n1 [Ganciclovir] | 30-50% | –
2 | O=C([O-])c1ccccc1-c1c2ccc(=O)cc-2oc2cc([O-])ccc12.[Na+].[Na+] [sodium fluorescein, Sodium fluorescein] | – | long-term constant release
